In data set [1] the test system is MITF expression in B16F10 cells. Nature of the data set: Western blot, MITF expression. It counts as cell-based, murine. As to conditions: 24 hr; for expression of MITF versus control: ED (as-synthesized); for expression of MITF versus ED: PAED (plasma-treated). How it is done:
Melanoma cells were incubated with as-synthesized and plasma-treated 4b and 6a test compounds for 24 hr. Following incubation, treated and untreated cells were lysed in RIPA buffer (Cell Signaling Technology, USA), whole cell protein was extracted and subjected to electrophoresis in 12% SDS-PAGE, and blotted onto nitrocellulose membranes. The membrane was probed with the antibodies raised against MITF, tyrosinase and TRP1 (Abcam, USA). The bands were detected using Super Signal West Pico Chemiluminescent Substrate (Pierce, Rockford, IL, USA) and images were taken using a Vilver imaging system (Vilver, Upland, CA, USA).
For orientation: Immunoblotting shows a protein as a band on a membrane.

The test system of data set [2] is B16F10 cells. Nature of the data set: Cell morphology of melanoma cells (microscopy). The following applies: 14-42 μg/ml, 24 hr, as-synthesized. It is filed as cell-based, murine. As for the experimental part: For cell morphology, the melanoma cells were seeded in cell culture plates (SPL Korea) and incubated at 37 °C (5% CO2 atmosphere). The cells were then incubated with the various concentrations of 4b and 6a (0 (con), 14, 21, 28, 35, and 42 μg/ml) following 24 hr incubation. The cell morphology was accessed and images were captured using an inverted fluorescent microscope (Nikon, ECLIPSE, Ti).

The target of a further data set is mushroom tyrosinase (Agaricus bisporus, UniProt C7FF04). Nature of the data set: Mushroom tyrosinase inhibition assay (L-DOPA, dopachrome at 492 nm). It is filed as biochemical. Further details: purchased Sigma Chemical Co. USA. As to conditions: mean ± SD, read-out: Tyrosinase inhibitory activity IC50 (converted). How it is done:
To determine the action of ED and PAED, we checked the mushroom tyrosinase inhibitory activity in a cell-free environment. […] Moreover, after plasma treatment for different time intervals, we observed that inhibition activity of 4a, 4b, 4d and 6a was improved more as compared to without treatment. […] However, we observed the highest relative improvement in IC50 value of compound 4b among all ED compounds at 10 min plasma treatment. […] Therefore, we used the 4b and 6a compounds for further investigations, based on the decrease in IC50 value to a global minimum of the experiment after plasma treatment.
The mushroom tyrosinase was used for in vitro bioassays as described previously with some modifications. Briefly, 140 μl of phosphate buffer (20 mM, pH 6.8), 20 μl of mushroom tyrosinase (30 U/ml), and 20 μl of the inhibitor solution were placed in the wells of a 96-well plate. After pre-incubation for 10 min at room temperature, 20 μl of L-DOPA (3,4-dihydroxyphenylalanine) (0.85 mM) was added and the plate was further incubated at 25 °C for 20 min. Subsequently the absorbance of dopachrome was measured at 492 nm using a micro plate reader (OPTI Max, Tunable). Kojic acid was used as a reference inhibitor. The extent of inhibition by the test compounds was expressed as the […] necessary to achieve 50% inhibition (IC50). Each concentration was analyzed in three independent experiments run in triplicate. The IC50 values were determined by the data analysis and graphing software, Origin.

Data set [3] has as its system B16F10 cells. Nature of the data set: Intracellular melanin content measurement. It counts as cell-based, murine. As to conditions: for activity at 35 µg/mL: Mus musculus, B16-F10, 35 μg/ml, read-out: melanin content, % of control (100%); for melanin, % of control (normalized to 100%): as-synthesized ED, no α-MSH, concentration not given. How it is done:
Melanoma (1.5 × 10^5) cells were seeded in cell culture plates and allowed to attach for 24 hr. Then each eugenol derivative was added and tested separately for melanin activation after 24 hr of incubation. After incubation, cells were detached using trypsin/EDTA and centrifuged at 1000 rpm for 5 min to collect the cell pellets. The cell pellets were solubilized in 1N NaOH at 60 °C for 1 hr. The melanin content was measured spectrophotometrically at 405 nm wavelength using a microplate reader (BioTek, synergy HT)[56]. […] Plasma-treated and non-plasma-treated ED (4b and 6a) were added to the cells, pre-incubated with or without α-MSH (100 nM) for a further 24 hr and melanin content was assayed as described above. Kojic acid can inhibit and α-MSH can stimulate the melanin in the cells, therefore we used them as negative and positive controls.

[4] abbreviates: Con: as-synthesized, before plasma treatment, cell-free.
[5] abbreviates: compound after 3 min N2 APPJ plasma treatment.
Where [6] appears, read: compound after 5 min N2 APPJ plasma treatment.
Setting [7] is: compound after 10 min N2 APPJ plasma treatment.

Read-outs that look alike come from different tables or passages of the source.

The IC50 is the concentration at which inhibition is half-maximal.

Sequence of mushroom tyrosinase (C7FF04 1-392): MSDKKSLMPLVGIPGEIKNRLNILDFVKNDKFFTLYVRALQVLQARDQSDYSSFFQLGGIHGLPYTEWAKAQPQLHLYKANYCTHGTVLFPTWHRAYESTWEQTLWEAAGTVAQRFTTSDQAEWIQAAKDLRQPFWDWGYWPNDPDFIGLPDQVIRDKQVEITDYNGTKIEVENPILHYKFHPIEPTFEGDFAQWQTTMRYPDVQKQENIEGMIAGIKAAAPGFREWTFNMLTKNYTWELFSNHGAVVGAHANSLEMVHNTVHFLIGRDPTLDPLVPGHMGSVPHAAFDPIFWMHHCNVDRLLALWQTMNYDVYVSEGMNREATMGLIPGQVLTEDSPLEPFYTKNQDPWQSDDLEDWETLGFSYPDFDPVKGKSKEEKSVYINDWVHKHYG

With `C=CCc1ccc(OC(=O)COC(=O)c2ccc(O)cc2)c(OC)c1` [4b, 2-[2-methoxy-4-(prop-2-en-1-yl)phenoxy]-2-oxoethyl 4-hydroxybenzoate], in data set [1], the “expression of MITF versus control” value is “higher expression”. For the same compound, the “expression of MITF versus ED” value in data set [1] is recorded as “more expression”. In addition, the “effect on cell morphology” value in the data set with B16F10 cells [2] is given as “no effect on cell morphology”. Moreover, the IC50 at mushroom tyrosinase (setting [4]) is 84.7 µM; at mushroom tyrosinase (setting [5]) it was 70.1 µM; on mushroom tyrosinase (setting [6]), 67.2 µM; at mushroom tyrosinase (setting [7]) it was 40.9 µM. The activity at 35 µg/mL with B16F10 cells [3] (after plasma treatment for 10 min, absence of α-MSH) was 143%; with B16F10 cells [3] (as-synthesized, absence of α-MSH) it was 125%; with B16F10 cells [3] (as-synthesized, presence of α-MSH) it was 156%. Further, the “melanin, % of control (normalized to 100%)” value with B16F10 cells [3] turned out to be 126%.
Take `C=CCc1ccc(OC(=O)COC(=O)/C=C/c2ccc(O)cc2)c(OC)c1` [6a, 2-[2-methoxy-4-(prop-2-en-1-yl)phenoxy]-2-oxoethyl(2E)-3-(4-hydroxyphenyl)prop-2-enoate]: the “expression of MITF versus control” value in data set [1] is listed as “higher expression”. The “expression of MITF versus ED” value in data set [1] is “more expression”. In addition, the “effect on cell morphology” value with B16F10 cells [2] is “no effect on cell morphology”. Further, the half-inhibitory concentration (IC50) on mushroom tyrosinase (setting [4]) was 13.6 µM; at mushroom tyrosinase (setting [5]), 13.6 µM; at mushroom tyrosinase (setting [6]), 13.6 µM; on mushroom tyrosinase (setting [7]), 8.14 µM. The “melanin, % of control (normalized to 100%)” value in the data set on B16F10 cells [3] worked out at 125%.

The record behind these values is article PMC4773869, “Influence of plasma-activated compounds on melanogenesis and tyrosinase activity” (Scientific Reports, 2016).
